Measured values as given in US20250353819A1, “ARYL HYDANTOIN COMPOUNDS AND METHODS OF USE” (priority 2022, published 2025).
“And” between values parts separate entries of the source, which are not always exact repeats. Identical values can stand only once. Like-named read-outs stand apart in the source and are kept apart here.

Legend:
[1] = Pharmacokinetics in male Sprague Dawley rats; assay type: in vivo, rat; details: for half-life: plasma; for Plasma Concentration: oral 1 mg/kg
Protocol: IV and oral formulations were prepared using the same method. On the day of dosing the solid compound was dissolved in DMSO prior to addition of a saline solution (0.9% w/v). The samples were then mixed using vortexing producing colourless solutions. The IV formulation was filtered through a 0.22 μm syringe filter prior to dosing and the oral formulation was dosed without filtration.
Samples of arterial blood were collected up to 168 h post-dose. Urine samples were not collected as animals were housed in bedded cages. Arterial blood was collected directly into borosilicate vials (at 4° C.) containing heparin as anticoagulant. Once collected, blood samples were centrifuged, supernatant plasma was removed and stored frozen (−80° C.) until analysis by LC-MS. A summary of the bioanalytical method and assay validation details is included in Tables 14 and 15.
Plasma concentration versus time data were analysed using non-compartmental methods (PKSolver Version 2.0). Standard calculations for each pharmacokinetic parameter are listed below.

LogD7.4 (shake flask) = details: pH 7.4
CYP 2C9 = CYP 2C9 (Homo sapiens (Human), UniProt P11712); experiment: CYP inhibition in human liver microsomes, 2C9
Sequence of CYP 2C9 (P11712 whole entry): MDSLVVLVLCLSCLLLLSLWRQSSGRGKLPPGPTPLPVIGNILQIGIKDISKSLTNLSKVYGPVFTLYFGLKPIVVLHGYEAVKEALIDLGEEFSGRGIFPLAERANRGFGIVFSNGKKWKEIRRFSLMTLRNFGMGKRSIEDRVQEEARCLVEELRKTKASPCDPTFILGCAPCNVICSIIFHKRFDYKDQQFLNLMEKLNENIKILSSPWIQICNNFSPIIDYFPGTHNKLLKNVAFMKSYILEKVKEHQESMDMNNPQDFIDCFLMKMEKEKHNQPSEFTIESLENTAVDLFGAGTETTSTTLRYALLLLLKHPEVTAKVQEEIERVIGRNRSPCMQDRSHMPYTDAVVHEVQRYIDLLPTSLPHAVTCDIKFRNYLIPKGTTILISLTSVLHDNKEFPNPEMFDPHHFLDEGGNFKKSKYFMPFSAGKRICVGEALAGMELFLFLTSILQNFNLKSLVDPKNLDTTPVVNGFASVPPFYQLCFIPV

CYP 2D6 = CYP 2D6 (Homo sapiens (Human), UniProt P10635); experiment: CYP inhibition in human liver microsomes, 2D6
Sequence of CYP 2D6 (P10635 whole entry): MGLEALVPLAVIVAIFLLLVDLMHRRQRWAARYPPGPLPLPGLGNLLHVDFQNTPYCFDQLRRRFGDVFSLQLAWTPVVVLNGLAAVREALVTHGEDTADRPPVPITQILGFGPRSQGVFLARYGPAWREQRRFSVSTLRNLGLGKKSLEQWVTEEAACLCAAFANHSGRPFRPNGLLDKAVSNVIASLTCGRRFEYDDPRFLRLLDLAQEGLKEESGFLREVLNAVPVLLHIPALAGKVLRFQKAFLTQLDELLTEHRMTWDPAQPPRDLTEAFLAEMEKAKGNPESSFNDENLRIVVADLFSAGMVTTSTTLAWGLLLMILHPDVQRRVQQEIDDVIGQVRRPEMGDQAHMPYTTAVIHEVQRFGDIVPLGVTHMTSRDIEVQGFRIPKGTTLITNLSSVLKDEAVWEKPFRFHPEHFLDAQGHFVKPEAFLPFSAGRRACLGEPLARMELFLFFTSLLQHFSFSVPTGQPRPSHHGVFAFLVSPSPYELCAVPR

CYP 3A4 = CYP 3A4 (Homo sapiens (Human), UniProt P08684); experiment: CYP inhibition in human liver microsomes, 3A4
Sequence of CYP 3A4 (P08684 whole entry): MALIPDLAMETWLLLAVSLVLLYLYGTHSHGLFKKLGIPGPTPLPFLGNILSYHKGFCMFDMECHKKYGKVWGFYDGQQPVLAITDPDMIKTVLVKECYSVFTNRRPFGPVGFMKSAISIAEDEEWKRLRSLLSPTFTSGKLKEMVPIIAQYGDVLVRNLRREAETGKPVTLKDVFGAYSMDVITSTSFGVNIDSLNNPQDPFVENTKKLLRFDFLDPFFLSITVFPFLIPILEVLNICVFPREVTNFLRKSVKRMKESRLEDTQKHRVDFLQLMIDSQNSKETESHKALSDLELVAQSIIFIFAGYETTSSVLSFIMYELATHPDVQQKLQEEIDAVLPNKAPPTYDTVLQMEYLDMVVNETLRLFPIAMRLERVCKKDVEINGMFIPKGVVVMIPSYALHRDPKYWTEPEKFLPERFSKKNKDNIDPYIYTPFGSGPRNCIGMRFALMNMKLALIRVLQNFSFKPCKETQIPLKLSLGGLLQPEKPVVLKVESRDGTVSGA

[2] = rats, IV 1 mg/kg, individual rats
[3] = rats, PO 1 mg/kg, individual rats

With CC1(C)NC(=O)N(c2ccc(F)c(C(C)(F)F)c2)C1=O [Compound IC, 3-(3-(1,1-difluoroethyl)-4-fluorophenyl)-5,5-dimethylimidazolidine-2,4-dione] the Cmax ([1]; male, Sprague Dawley, rat, in vivo, po, 1 mg/kg, rats, PO 1 mg/kg, mean (n = 3), read-out: Plasma Cmax) was 572 ng/mL, the Tmax ([1]; male, Sprague Dawley, rat, in vivo, po, 1 mg/kg, rats, PO 1 mg/kg, mean (n = 3), read-out: Tmax) was 6.7 h and the half-life ([1]; male, Sprague Dawley, rat, iv, 1 mg/kg, rats, IV 1 mg/kg, individual rats, read-out: Apparent t1/2 (converted)) was 13 h. It also gave a half-life ([1]; male, Sprague Dawley, rat, iv, 1 mg/kg, rats, IV 1 mg/kg, mean (n = 3), read-out: Apparent t1/2 (converted)) of 15 h, a half-life ([1]; male, Sprague Dawley, rat, other: IV and oral, 1 mg/kg, rats, following IV and oral administration 1 mg/kg, read-out: apparent half-life) of 13 to 19 h and a half-life ([1]; male, Sprague Dawley, rat, po, 1 mg/kg, rats, PO 1 mg/kg, individual rats, read-out: Apparent t1/2 (converted)) of 16 h. The half-life ([1]; male, Sprague Dawley, rat, po, 1 mg/kg, rats, PO 1 mg/kg, mean (n = 3), read-out: Apparent t1/2 (converted)) was 16 h, the “Plasma Concentration” value ([1]; 1.00 h, individual rats) was 614 ng/mL and 430 ng/mL and 184 ng/mL and the “Plasma Concentration” value ([1]; 1.00 h, mean) was 409 ng/mL. For the same molecule, the “Plasma Concentration” value ([1]; 2.00 h, individual rats) was 612 ng/mL and 506 ng/mL and 427 ng/mL, the “Plasma Concentration” value ([1]; 2.00 h, mean) was 515 ng/mL and the “Plasma Concentration” value ([1]; 4.00 h, individual rats) was 545 ng/mL and 477 ng/mL and 474 ng/mL. The “Plasma Concentration” value ([1]; 4.00 h, mean) was 499 ng/mL, the “Plasma Concentration” value ([1]; 7.00 h, individual rats) was 612 ng/mL and 559 ng/mL and 455 ng/mL and the “Plasma Concentration” value ([1]; 7.00 h, mean) was 542 ng/mL. The “Plasma Concentration” value ([1]; 24.00 h, individual rats) was 365 ng/mL and 309 ng/mL and 390 ng/mL, the “Plasma Concentration” value ([1]; 24.00 h, mean) was 355 ng/mL and the “Plasma Concentration” value ([1]; 36.00 h, individual rats) was 294 ng/mL and 183 ng/mL and 254 ng/mL. The “Plasma Concentration” value ([1]; 36.00 h, mean) was 243 ng/mL, the “Plasma Concentration” value ([1]; 48.00 h, individual rats) was 188 ng/mL and 94 ng/mL and 170 ng/mL and the “Plasma Concentration” value ([1]; 48.00 h, mean) was 151 ng/mL. For the same molecule, the “Plasma Concentration” value ([1]; 72.00 h, individual rats) was 82.4 ng/mL and 58.1 ng/mL and 31.5 ng/mL, the “Plasma Concentration” value ([1]; 72.00 h, mean) was 57 ng/mL and the “Plasma Concentration” value ([1]; 96.00 h, individual rats) was 32.0 ng/mL and 5.1 ng/mL and 28.5 ng/mL. The “Plasma Concentration” value ([1]; 96.00 h, mean) was 21.8 ng/mL, the “Plasma Concentration” value ([1]; 144.00 h, individual rats) was 2.9 ng/mL and 4.4 ng/mL and the “Plasma Concentration” value ([1]; 144.00 h, mean) was 3.7 ng/mL. For the same molecule, the “adverse reactions or compound-related side effects” value ([1]; rats, 7-day sampling period after IV or oral 1 mg/kg) was “no adverse reactions or compound-related side effects”, the “Apparent t1/2” value [1, 2] was 14 h and the “Blood CL” value [1, 2] was 0.589 mL/min/kg and 0.808 mL/min/kg. For the same molecule, the “Blood Vss” value [1, 2] was 0.991 L/kg and 1.19 L/kg, the “Plasma AUCIV” value [1, 2] was 23600 ng·h/mL and 17200 ng·h/mL and the “Plasma CL” value [1, 2] was 0.707 mL/min/kg and 0.970 mL/min/kg. The “Plasma Vss” value [1, 2] was 1.19 L/kg and 1.43 L/kg, the “Apparent t1/2” value ([1]; rats, IV 1 mg/kg, mean (n = 3)) was 15 h and the “Plasma AUCIV” value ([1]; rats, IV 1 mg/kg, mean (n = 3)) was 20600 ng·h/mL. For the same molecule, the “time for which measurable plasma concentrations were observed” value ([1]; rats, IV and oral 1 mg/kg) was “up to 6 days”, the “Apparent t1/2” value [1, 3] was 13 h and 19 h and the BA [1, 3] was 113% and 85.5% and 99.2%. For the same molecule, the “Plasma AUCoral” value [1, 3] was 17600 ng·h/mL, the “Plasma Cmax” value [1, 3] was 559 ng/mL and 543 ng/mL and the Tmax [1, 3] was 1.0 h and 7.0 h and 12 h. For the same molecule, the “Apparent t1/2” value ([1]; rats, PO 1 mg/kg, mean (n = 3)) was 16 h, the “Plasma Cmax” value ([1]; rats, PO 1 mg/kg, mean (n = 3)) was 572 ng/mL and the “LogD7.4 (shake flask)” value (LogD7.4 (shake flask)) was 2.1. It also gave a logD (LogD7.4 (shake flask)) of 2.1, an IC50 (CYP 2C9) of over 20 µM and an IC50 (CYP 2D6) of over 20 µM. The IC50 (CYP 3A4) was over 20 µM.
